# Data reported in patent US10828335B2, “Production of midbrain dopaminergic neurons and methods for the use thereof” (FUJIFILM Cellular Dynamics, Inc., priority 2014, dated 2020).
# Assays:
# Format in all cases: cell-based, human
# [1] = test system: cells differentiated from iPS cell line MAP2 Neo #2; experiment: Flow cytometry of midbrain DA neuron differentiation with G418 drug selection (Example 1); conditions: day 38; 100 μg/mL G418 selection; same protocol without drug selection gave 39% neurons
# Protocol: On Day 24, cells were dissociated using Accutase (45 min) and were re-plated at 3.1×10^5 cells/cm^2 onto flasks pre-coated with poly-L-ornithine and laminin (PLO/laminin) in Maturation Medium containing 2.5 μM blebbistatin. Cells were fed with Maturation Medium on Day 25. On Day 27 and Day 29, cells were fed with Maturation Medium containing 100 μg/mL G418 to select against cells not expressing the neomycin resistance gene under the control of a pan-neuronal MAP2 promoter.
# On Day 31, cells were dissociated using Accutase (45 min) and were re-plated at 3.1×10^5 cells/cm^2 onto PLO/ laminin flasks in Maturation Medium containing 100 μg/mL G418 and 2.5 μM blebbistatin. On Day 32, Day 34 and Day 36, cells were fed with Maturation Medium. On Day 38, cells were dissociated using Accutase (45 min) and cryopreserved in CryoStor CS10 medium at 1.25×10^7 cells/mL using a controlled rate freezer.
# The effect of drug selection on gene expression in cell populations was also analyzed. […] This iPS cell lines (MAP2 Neo #2 (01279.107.00402)) was generated using zinc finger nuclease-mediated homologous recombination at the AAVS1 safe harbor site, as detailed above. The midbrain DA neuron differentiation protocol performed without drug selection results in a population of cells that is 39% neurons (Map2^+/Nestin^−) on day 38. […]
# [2] = test system: cells differentiated from iPS cell line MAP2 Neo #2; experiment: Flow cytometry of cells made with the No FGF8 protocol with drug selection (+G418) (Example 2); conditions: +G418, 7 days post-thaw
# Protocol: On Day 19, cells were dissociated using Accutase (45 min) and were re-plated at 3.1×10^5 cells/cm^2 onto flasks pre-coated with poly-L-ornithine and laminin (PLO/laminin) in Maturation Medium containing 2.5 μM blebbistatin. Cells were fed with Maturation Medium on Days 20, 22 and 24. To compare unselected cells to those that had undergone drug selection, in some experiments a side-arm condition of cells were fed on Day 22 and 24 with Maturation Medium containing 100 μg/mL G418 to select against cells not expressing the neomycin resistance gene under the control of a pan-neuronal MAP2 promoter.
# On Day 26, cells were dissociated using Accutase (45 min) and cryopreserved in CryoStor CS10 medium at 1.25×10^7 cells/mL using a controlled rate freezer.
# In further studies the purity of mature midbrain DA neurons was assessed by flow cytometry of cells generated using a “no FGF8” protocol alone compared to cells obtained using a drug selection method. When the cells are cryopreserved on day 26 with no drug selection, they are 99% FoxA2^+, 40% TH^+, and 77% Map2^+. […] For comparison, cells made using the same protocol but with drug selection (+G418), the final purity at 7 days post-thaw was 96% FoxA2^+, 63% TH^+, and 98% Map2^+.
# MAP2 Neo #2 iPS cells = experiment: Midbrain specification during DA progenitor induction with a MEK inhibitor; conditions: 1 μM PD0325901 added from Day 2 of differentiation
# Protocol: Day 1 medium was composed of DMEM/F12 with B27 Supplement and containing a cocktail of small molecule inhibitors and activators (“Induction Cocktail”): 200 nM LDN-193189, […] SB431542, 2 μM purmorphamine, 100 ng/mL Shh C25II and 1.25 μM CHIR 99021. […] On Day 3 and Day 4, the cells were fed with DMEM/F12 with B27 (−Vitamin A)+Induction Cocktail+1 μM PD0325901.
Structure (SMILES),neurons (Map2+/Nestin-) in the cell population [1] [%],"TH+ cells, final purity ([2]; without selection 55%) [%]","Map2+ cells, final purity ([2]; without selection 90%) [%]","FoxA2+ cells, final purity ([2]; without selection 93%) [%]",midbrain specification (MAP2 Neo #2 iPS cells)
CN[C@@H]1[C@@H](O)[C@@H](O[C@@H]2[C@@H](O)[C@H](O[C@H]3O[C@H]([C@@H](C)O)[C@@H](O)[C@H](O)[C@H]3N)[C@@H](N)C[C@H]2N)OC[C@]1(C)O [G418],95,63,98,96,–
O=C(NOC[C@H](O)CO)c1ccc(F)c(F)c1Nc1ccc(I)cc1F [PD0325901],–,–,–,–,induces faster and more efficient midbrain specification
